Bounds are passed on as bounds.

For the assay, the target named is T1, TDO2 (Homo sapiens, UniProt P48775).
T1 construct: decreased levels of NFK in SW48 cells (high TDO expressing cells)
T1 sequence (P48775 whole entry): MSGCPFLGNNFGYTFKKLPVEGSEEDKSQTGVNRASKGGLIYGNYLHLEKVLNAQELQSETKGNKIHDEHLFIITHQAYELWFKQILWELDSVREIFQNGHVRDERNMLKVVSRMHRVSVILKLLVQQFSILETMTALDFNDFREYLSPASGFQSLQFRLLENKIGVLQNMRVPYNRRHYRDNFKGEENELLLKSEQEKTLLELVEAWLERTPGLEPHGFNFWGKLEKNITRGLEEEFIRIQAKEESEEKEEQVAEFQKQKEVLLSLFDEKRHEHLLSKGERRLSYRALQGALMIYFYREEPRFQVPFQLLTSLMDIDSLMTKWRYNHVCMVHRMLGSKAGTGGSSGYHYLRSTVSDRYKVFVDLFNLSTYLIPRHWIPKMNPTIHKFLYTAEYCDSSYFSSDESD
The assay can be described thus: TDO2 cell assay (NFK GreenScreen, SW48 cells). It is filed as cell-based. The following applies: SW48 cells (high TDO expressing), 200 uM tryptophan, 24 hours; Table 3; read-out: TDO2 Cell Fluor EC50.
One may read the EC50 as the concentration at which the effect is half-maximal. `CCS(=O)(=O)N1CCC2(CC1)C[C@@H]([C@@H]1c3ccccc3-c3cncn31)[C@@H]2O` [Example 114b, (1S,2S)-7-(ethylsulfonyl)-2-((R)-5H-imidazo[5,1-a]isoindol-5-yl)-7-azaspiro[3.5]nonan-1-ol]: the concentration for a half-maximal effect (EC50) was above 25 µM.
Consider `CC(C)(C)OC(=O)N1CCCC(O)(C2c3ccccc3-c3cncn32)C1` (single isomer, unassigned) [Example 127a], for which the concentration for a half-maximal effect (EC50) turned out to be 3.7 µM.
In the case of `OC1(C2c3ccccc3-c3cncn32)CCC(F)(F)CC1` (racemic) [Example 53, 4,4-difluoro-1-(5H-imidazo[5,1-a]isoindol-5-yl)cyclohexan-1-ol] it was 0.17 µM; in that of `OC1c2ccnn2CCCC1C1c2ccccc2-c2cncn21` (single isomer, unassigned) [Example 133a], above 25 µM; in that of `OC1CCC(F)(F)CC1C1c2ccccc2-c2cncn21` (single isomer, unassigned) [Example 18c, 4,4-difluoro-2-(5H-imidazo[5,1-a]isoindol-5-yl)cyclohexan-1-ol], 0.32 µM.
In the case of `CC1(C)OC(C)(C)C(C2c3ccccc3-c3cncn32)C1O` (single isomer, unassigned) [Example 84e] it was above 25 µM.
In the case of `CS(=O)(=O)N1CCC2(CC1)CC(C1c3ccccc3-c3cncn31)C2O` (single isomer, unassigned) [Example 179c] it was above 25 µM; in that of `Cc1cc2n(n1)CCC(C1c3ccccc3-c3cncn31)C2O` (single isomer, unassigned) [Example 166a], above 25 µM; in that of `CS(=O)(=O)N1CC2(CC(C3c4ccccc4-c4cncn43)C2O)C1` (centres unmarked) [Example 183, 6-(5H-imidazo[5,1-a]isoindol-5-yl)-2-(methylsulfonyl)-2-azaspiro[3.3]heptan-5-ol], 0.22 µM.
Turning to `CS(=O)(=O)N1CC[C@@H]([C@H]2c3ccccc3-c3cncn32)[C@H](O)C1` (single isomer, unassigned) [Example 64d], the EC50 was determined as 2.5 µM.
As for `OC1COCCC1C1c2cc(F)ccc2-c2cncn21` (single isomer, unassigned) [Example 75-1d], the EC50 was above 25 µM.
For `O[C@H]1c2cnccc2CC[C@@H]1[C@@H]1c2ccccc2-c2cncn21` (single isomer, unassigned) [Example 04g] the value was 19 µM.
For the compound `CC1(C)OCC(C2c3ccccc3-c3cncn32)C1O` (single isomer, unassigned) [Example 85c], the concentration giving a half-maximal response (EC50) was found to be 11 µM.
Turning to `O[C@@H]1c2c(Cl)cnn2CC[C@@H]1[C@H]1c2ccccc2-c2cncn21` (single isomer, unassigned) [Example 160c], the EC50 is 23 µM.
In the case of `O[C@@H]1c2ncccc2CC[C@H]1[C@H]1c2ccccc2-c2cncn21` (single isomer, unassigned) [Example 126b], the EC50 came out at 0.083 µM.
For `CS(=O)(=O)c1ccc2c(c1)OCC(C1c3ccccc3-c3cncn31)C2O` (single isomer, unassigned) [Example 91e] the value was 6.1 µM; for `N#CCN1CCC(O)C(C2c3ccccc3-c3cncn32)C1` (single isomer, unassigned) [Example 14b], above 25 µM; for `CCS(=O)(=O)N1CCC2(CC1)CC(C1c3ccccc3-c3cncn31)C2O` (single isomer, unassigned) [Example 114e], 1.2 µM.
In the case of `N#Cc1cnc2c(c1)CCC(C1c3ccccc3-c3cncn31)C2O` (single isomer, unassigned) [Example 107b] it was above 25 µM; in that of `O[C@H]1c2cnccc2CC[C@@H]1[C@@H]1c2ccccc2-c2cncn21` (single isomer, unassigned) [Example 04f], 2.3 µM.
As for `Cn1cc2c(n1)[C@@H](O)[C@@H]([C@@H]1c3ccccc3-c3cncn31)CC2` (single isomer, unassigned) [Example 139-1d], the EC50 came to 0.7 µM.
Consider `OC1c2ccccc2CC1C1c2ccccc2-c2cncn21` (single isomer, unassigned) [Example 19b], for which the EC50 stood at 0.51 µM.
In the case of `NS(=O)(=O)N1CC[C@@H]([C@@H]2c3ccccc3-c3cncn32)[C@H](O)C1` (single isomer, unassigned) [Example 39d] it was 0.056 µM; in that of `OC1c2cnncc2CCC1C1c2ccccc2-c2cncn21` (single isomer, unassigned) [Example 112h], above 25 µM; in that of `Cn1cc2c(n1)CCC(C1c3ccccc3-c3cncn31)C2O` (single isomer, unassigned) [Example 130f], 1.2 µM.
`O[C@@H]1c2cccnc2CC[C@@H]1[C@@H]1c2ccccc2-c2cncn21` [Example 31a, (5S,6R)-6-((R)-5H-imidazo[5,1-a]isoindol-5-yl)-5,6,7,8-tetrahydroquinolin-5-ol]: the EC50 is above 25 µM.
`OC1CCCCCC1C1c2ccccc2-c2cncn21` (single isomer, unassigned) [Example 115c, 2-(5H-imidazo[5,1-a]isoindol-5-yl)cycloheptan-1-ol]: the EC50 came to 0.05 µM.
On to `O=S1(=O)CC(C2c3ccccc3-c3cncn32)C(O)c2ccccc21` (racemic) [Example 96a, 4-hydroxy-3-(5H-imidazo[5,1-a]isoindol-5-yl)thiochromane 1,1-dioxide], for which the EC50 came out at 0.89 µM.
For `O[C@@H]1c2ccncc2CC[C@@H]1[C@@H]1c2ccccc2-c2cncn21` (single isomer, unassigned) [Example 08g] the value was 8.3 µM; for `OC1C(C2c3ccccc3-c3cncn32)CC12CCOCC2` (single isomer, unassigned) [Example 57e], 0.077 µM.
On to `N#CC1(C(O)C2c3ccccc3-c3cncn32)CC1` (single isomer, unassigned) [Example 153b], for which the 50% effective concentration (EC50) is 11 µM.
Turning to `OC1c2nccn2CCC1C1c2ccccc2-c2cncn21` (single isomer, unassigned) [Example 88c], the concentration giving a half-maximal response (EC50) is above 25 µM.
For `OC1c2cncnc2CCC1C1c2ccccc2-c2cncn21` (single isomer, unassigned) [Example 94a], the EC50 came to 2.3 µM.
As for `OC1c2c(F)cnn2CCC1C1c2ccccc2-c2cncn21` (single isomer, unassigned) [Example 151c], the EC50 is above 25 µM.
As for `OC1c2cncn2CCC1C1c2ccccc2-c2cncn21` (single isomer, unassigned) [Example 07e], the EC50 came out at 2.2 µM.
In the case of `OC1c2[nH]ncc2CCC1C1c2ccccc2-c2cncn21` (single isomer, unassigned) [Example 157f] it was above 25 µM.
For `OC1CC2(CCC2)C1C1c2ccccc2-c2cncn21` (single isomer, unassigned) [Example 67d] the value was 0.24 µM; for `OC1(C2c3ccccc3-c3cncn32)CCCOC1` (single isomer, unassigned) [Example 144d], above 25 µM.
Consider `OC1c2cnncc2CCC1C1c2ccccc2-c2cncn21` (single isomer, unassigned) [Example 112a], for which the EC50 was above 25 µM.
With `NS(=O)(=O)N1CCC2(CC1)CC(C1c3ccccc3-c3cncn31)C2O` (single isomer, unassigned) [Example 181c], the concentration giving a half-maximal response (EC50) is above 25 µM.
For `CC(C)(C)OC(=O)N1CC2(CC(C3c4ccccc4-c4cncn43)C2O)C1` (single isomer, unassigned) [Example 41h, tert-butyl 7-hydroxy-6-(5H-imidazo[1,5-b]isoindol-5-yl)-2-azaspiro[3.3]heptane-2-carboxylate] the value was 0.75 µM; for `OC1COCC1C1c2ccccc2-c2cncn21` (single isomer, unassigned) [Example 26b], 0.23 µM.
On to `O[C@@H]1c2cccnc2CC[C@H]1[C@@H]1c2ccccc2-c2cncn21` [Example 31g, (5S,6S)-6-((R)-5H-imidazo[5,1-a]isoindol-5-yl)-5,6,7,8-tetrahydroquinolin-5-ol], for which the EC50 was 1.8 µM.
In the case of `Cn1ncc2c1CCC(C1c3ccccc3-c3cncn31)C2O` (single isomer, unassigned) [Example 93g] it was above 25 µM.
For `CC1(C)CCC(C2c3ccccc3-c3cncn32)C1O` (single isomer, unassigned) [Example 23a] the value was above 25 µM; for `CC(C)C(O)C1c2ccccc2-c2cncn21` (single isomer, unassigned) [Example 51c], 0.11 µM; for `NS(=O)(=O)c1ccc2c(c1)C(O)C(C1c3ccccc3-c3cncn31)CC2` (single isomer, unassigned) [Example 105h], 0.51 µM.
For `CC(O)(c1ncc[nH]1)C1c2ccccc2-c2cncn21` (single isomer, unassigned) [Example 143d] the value was above 25 µM.
`OC1c2nonc2CCC1C1c2ccccc2-c2cncn21` (single isomer, unassigned) [Example 163e]: the EC50 came to 6.1 µM.
Consider `CC1(C)OC(C)(C)C(C2c3ccccc3-c3cncn32)C1O` (single isomer, unassigned) [Example 84a], for which the EC50 was 14 µM.
For `CC(C)C(O)C1c2ccc(F)cc2-c2cncn21` (single isomer, unassigned) [Example 135d], the EC50 worked out at 0.13 µM.
As for `O[C@@H]1CCOC[C@H]1[C@H]1c2ccccc2-c2cncn21` [Example 05b, (3R,4R)-3-((S)-5H-imidazo[5,1-a]isoindol-5-yl)-tetrahydro-2H-pyran-4-ol], the half-maximal effective concentration (EC50) amounted to 0.21 µM.
Consider `O[C@H]1c2[nH]ncc2CC[C@H]1[C@H]1c2ccccc2-c2cncn21` [Example 157d, (6S,7R)-6-((S)-5H-imidazo[5,1-a]isoindol-5-yl)-4,5,6,7-tetrahydro-1H-indazol-7-ol], for which the EC50 was 23 µM.
For `O[C@H]1c2cccnc2CC[C@@H]1[C@@H]1c2ccc(F)cc2-c2cncn21` (single isomer, unassigned) [Example 169b] the value was 16 µM; for `NS(=O)(=O)c1ccc2c(c1)C(O)C(C1c3ccccc3-c3cncn31)CC2` (single isomer, unassigned) [Example 105f], 16 µM; for `O[C@H]1CCC[C@H]1[C@@H]1c2ccccc2-c2cncn21` [Example 02d, (1S,2S)-2-((R)-5H-imidazo[5,1-a]isoindol-5-yl)cyclopentan-1-ol], 14 µM.

The record behind these values is patent US12583858B2 (Genentech, Inc., priority 2015, dated 2026).
